# Assay results: patent publication US20230175022A1 (priority 2020, published 2023)
# Test system: S. cerevisiae
# Experiment: Growth of S. cerevisiae strains in overlay/underlay candidates (OD600)
# Assay type: cell-based, Saccharomyces cerevisiae
# Conditions: 20% (v/v) overlay/underlay; YP+2% (w/v) galactose
# Method: To test non-toxic organic overlays/underlays, different non-production background and production strains of S. cerevisiae (Table 1) were inoculated from colonies on YPD agar plates and grown for approximately 24 hours in 96 well deepwell plates containing 300 μL YP+2% (w/v) glucose at 30° C. with 950 rpm shaking (3 mm throw) and maintained at 85% humidity. These cultures were then used to inoculate 96 well deepwell plates containing 300 μL YP+2% (w/v) galactose (YP gal) or glucose (YP glu), with or without addition of 0.04% (w/v) hexanoic acid (HA) plus 20% (v/v) (60 μL) of different overlays/underlays or no organic phase, under the same conditions described for precultures. At three different times (specified in plots), biological triplicate cultures were sampled and optical density at 600 nm (0D600) was measured as a proxy for biomass growth on a SpectraMax plate reader, with dilution in water to allow measurements to be within the linear range of instrumental readings. Averaged OD600s across at least three biological replicates of each strain/overlay condition at each sampling time. Multiple sets of measurements were performed on large groups of overlay and underlay candidates in different batches.
row,Compound,"toxicity to growth (OD600), with galactose"
1,"CC(C)(C)OC(=O)CC(=O)OC(C)(C)C [di-cert-butyl malonate, Di-tert-butyl malonate]",appearing toxic or to induce substantial lag
2,CCOC(=O)C(CC)(CC)C(=O)OCC [diethyl diethylmalonate],substantial lag

# Same assay, conditions: 20% (v/v) overlay/underlay; YP+2% (w/v) galactose or glucose; 96 well deepwell plates; production and non-production strains
row,Compound,toxicity to growth (OD600 as proxy for biomass growth)
1,"2,2,4-trimethyl-1,3-pentanediol monoisobutyrate [Texanol]",inhibitory to growth
2,CCCCCCCCCCO [Decanol],toxic to growth
3,CCCCOC(=O)CCCCCCCCC(=O)OCCCC [Dibutyl sebacate],completely non-inhibitory to growth
4,"CCCCCCCCCCCCCC(=O)OC(C)C [IPM, isopropyl myristate]",non-toxic
5,CCCCCCCC(=O)OC(C)C [Isopropyl octanoate],moderately inhibitory but allowed for some growth
6,CCCCCCCC(=O)OCC(COC(=O)CCCCCCC)OC(=O)CCCCCCC [Tricaprylin],fairly toxic
7,CCCCCCCCCCCC(=O)OCCCC [butyl laurate],non-toxic
8,CCCCOC(=O)CCCCC(=O)OCCCC [dibutyl adipate],no apparent toxicity
9,CCOC(=O)CCCCCCCCC(=O)OCC [diethyl sebacate],modest growth by most strains
10,CC(C)OC(=O)CCCCC(=O)OC(C)C [diisopropyl adipate],Some growth was observed
11,CCCCCCCCCCCC [dodecane],Lack of toxicity
12,CCCCCCCCCC(=O)OCC [ethyl decanoate],increasingly non-toxic
13,CCCCCCCCCCCC(=O)OCC [ethyl laurate],non-toxic
14,CCCCCCCCCCCCCC(=O)OCC [ethyl myristate],non-toxic
15,CCCCCCCCCCCCCCCC [hexadecane],Lack of toxicity
16,CCCCCCOC(=O)CCCCC [hexyl hexanoate],moderately non-toxic
17,CCCCCCCCCC(=O)OC [methyl decanoate],moderately inhibitory to growth but still allowed for growth
18,CCCCCCCCCCCCCC(=O)OC [methyl myristate],non-toxic
19,CCCCCCCCOC(C)=O [octyl acetate],toxic
20,CCCCCCCC/C=C\CCCCCCCCO [oleyl alcohol],supports robust growth
21,CCCCCCCCCCCCCC [tetradecane],Lack of toxicity

# Same assay, conditions: 20% (v/v) overlay/underlay; YP+2% (w/v) glucose
row,Compound,"toxicity to growth (OD600), with glucose"
1,CCCCCCCC(=O)OCC(COC(=O)CCCCCCC)OC(=O)CCCCCCC [Tricaprylin],allowed some growth of all strains
2,"CC(C)(C)OC(=O)CC(=O)OC(C)(C)C [di-cert-butyl malonate, Di-tert-butyl malonate]",supported growth of all strains
3,CCOC(=O)C(CC)(CC)C(=O)OCC [diethyl diethylmalonate],modest growth by most strains

# Test system: not listed separately
# Experiment: Partitioning of divarinic acid and divarin into organic overlays (96 well deepwell plate, HPLC)
# Assay type: physicochemical
# Conditions: Delft medium+CSM+2% glucose, 48 hours
# Method: Several monoester and one diester overlay candidate were compared to IPM for production of divarinic acid and divarin. LSC3-13 precultures were inoculated from YPD streak plates and grown in 300 μL Delft medium+0.79 g/L complete supplement mixture (CSM) (ForMedium, Norfolk, UK)+2% (w/v) glucose in round-bottom square well 96 well deepwell plates for approximately 18 hours overnight at 30° C. with 950 rpm shaking in an Infors plate shaker. 96 well deepwell plate wells containing 300 μL of Delft medium+CSM+2% (w/v) glucose, 60 μL of different overlay solvents, and 0.08% (w/v) butyric acid, were inoculated with 10 μL of preculture and grown for 30° C. with 950 rpm shaking. After 48 hours, the aqueous layer and overlay were sampled on a Bravo automated liquid handling platform (Agilent) and samples from the aqueous and organic overlay phases were subjected to HPLC analysis to measure divarinic acid and divarin production.
row,Compound,partitioning into monoester overlays compared with olivetolic acid and olivetol
1,"CCCc1cc(O)cc(O)c1 [divarin, 1,3-dihydroxy-5-propylbenzene]",partition less effectively
2,"CCCc1cc(O)cc(O)c1C(=O)O [divarinic acid, 2,4-dihydroxy-6-propylbenzoic acid]",partition less effectively

# Test system: not listed separately
# Experiment: Partitioning of olivetolic acid between organic overlay and aqueous culture phase (shake flask, HPLC)
# Assay type: physicochemical
# Conditions: IPM overlay; YP+2% galactose culture, not acidified
# Method: Precultures of LSC3-2 and LSC3-18 were inoculated from YPD streak plates and grown in 30 mL of YP+2% (w/v) glucose in baffled 250 mL shake flasks for approximately 18 hours overnight at 30° C. with 200 rpm shaking. Baffled 250 mL shake flasks containing 30 mL of YP+2% (w/v) galactose, 5 mL of IPM or diethyl sebacate, and 0.04% (w/v) hexanoic acid, were inoculated with 1 mL of preculture and grown for at 30° C. with 200 rpm shaking. After 24 and 48 hours, samples of cell culture broth plus overlay were sampled into microcentrifuge tubes and stored at −20° C. at least overnight. Sample tubes were thawed and aqueous sample and overlay sample were pipetted into plates for HPLC analysis. Overlay samples were diluted 1:1 v/v with methanol in the HPLC plate prior to analysis.
row,Compound,partitioning between overlay and aqueous phase
1,"CCCCCc1cc(O)cc(O)c1C(=O)O [OA, olivetolic acid]",partitioned between the IPM and aqueous phases

# Same assay, conditions: diethyl sebacate overlay; YP+2% galactose culture, not acidified
row,Compound,partitioning between overlay and aqueous phase
1,"CCCCCc1cc(O)cc(O)c1C(=O)O [OA, olivetolic acid]",entirely partitioned into diethyl sebacate

# Test system: S. cerevisiae
# Experiment: Growth of S. cerevisiae strains in overlay/underlay candidates (OD600)
# Assay type: cell-based, Saccharomyces cerevisiae
# Conditions: 1-10% (v/v), particularly 1-2.5% (v/v), in IPM and isopar M
row,Compound,toxicity to growth of mixture in IPM or isopar M
1,"CC(C)(C)OC(=O)CC(=O)OC(C)(C)C [di-cert-butyl malonate, Di-tert-butyl malonate]",much lower toxicity
